In brackets after ≈: the same amount, converted by molar mass.
Key:
[1] = system: peptic ulcer induced by water immersion restraint stress; assay: Inhibitory action against the peptic ulcer induced by water immersion restraint stress; assay type: in vivo; conditions: Rattus norvegicus; SD male rats, 32 mg/kg oral, water immersion restraint stress 23° C., 7 hours; read-out: Inhibitory action against stress peptic ulcer, Percent inhibition of p.u. formation
Experimental: (1) Inhibitory action against the peptic ulcer induced by water immersion restraint stress
(§1) SD male rats (weighing 200-300 g) were fasted for 24 hours before oral administration of a thiourea derivative of the invention at a dose of 32 mg/kg bodyweight. One hour later, the animal was put in a stress cage and loaded with water immersion restraint stress in a water bath at 23° C. Seven hours after loading with the stress, the rate was sacrificed with ether, and the stomach was excised and treated with formalin. Area (mm^2 ) of the lesions developed in the glandular stomach area was then measured. Results were expressed in sum of the lesions per animal which was referred to as peptic ulcer index.
(§2) It was confirmed that the thiourea derivatives of the invention not shown in the table also have a similar antiulcer activity.
Percent inhibition of the peptic ulcer formation (%) as shown in the table was calculated according to the following equation: [formula]

Helicobacter pylori = assay: Antimicrobial activity against Helicobacter pylori (MIC); assay type: cell-based, Helicobacter pylori strain NCTC 11916; conditions: NCTC11916, strain NCTC 11916, twofold dilution, 37° C., 3-5 days, O2 about 5%
Experimental: (3) Antimicrobial activity against Helicobacter pylori
Antimicrobial activity of the thiourea derivatives according to the invention against Helicobacter pylori (or Campylobacter pylori) was evaluated by employing strain NCTC 11916 as a Helicobacter test organism and determining MIC (minimum inhibitory concentration) for the strain with the thiourea derivative.
The Helicobacter pylori was pre-incubated in a plate medium for 3-5 days. The medium was prepared by dissolving 38 g of a Mueller-Hinton medium (manufactured by Difco) in an appropriate amount of distilled water, sterilizing the solution in an autoclave, adding to the solution 50 ml of a horse hemolysis solution (manufactured by Nippon Seibutu Zairyou Center: Horse defibrinized blood, hemolyzed by a lyophilization treatment) and 2 ml of Skirrow, a Campylobacter selective supplement (manufactured by OXOID) containing vancomycin (5 mg), trimethoprim (2.5 mg) and polymyxin B (1250 IU) per vial (2 ml), and further an appropriate amount of distilled water to a volume of 1L in total and expanding and solidifying the solution on a dish. These antibiotics were contained for inhibition of the growth of microorganism other than Helicobacter pylori. The Helicobacter pylori pre-incubated under slightly aerobic conditions (an O2 concentration of about 5%) at 37° C. for 3-5 days was suspended in a physiological saline solution in a concentration of approximately 10^8 organisms/ml. Approximately 10-20 μl of the suspension was inoculated on a medium for MIC measurement in cross streaks. […] The DMSO solution was formed by the twofold dilution method. As in the pre-incubation, the Helicobacter pylori was cultured under slightly aerobic conditions at 37° C. for 3-5 days. After completion of the culture, growth of the microoranisms on the streaks was visually determined. The minimum concentration of the thiourea derivative in which no growth was observed was taken as MIC.
It was confirmed that the thiourea derivatives of the invention not shown in the table also have a similar antimicrobial activity.

ethanol peptic ulcer = assay: Inhibitory action against ethanol peptic ulcer; assay type: in vivo; conditions: Rattus norvegicus; SD male rats, 32 mg/kg oral, 1 hour before ethanol 0.5 ml/100 g; read-out: Inhibitory action against ethanol peptic ulcer, Percent inhibition of p.u. formation
Experimental: (2) Inhibitory action against ethanol peptic ulcer
as §1, with “ethanol” for “the animal”, “orally given” for “put”, “volume of 0.5 ml/100 g bodyweight. One hour after treating” for “stress cage and loaded”, “ethanol,” for “water immersion restraint stress in a water bath at 23° C. Seven hours after loading with”, “rat” for “stress, the rate”, “(mm^2)” for “(mm^2 )”
as §2
Percent inhibition of the peptic ulcer formation (%) as shown in the table was calculated according to the same equation as mentioned above.

MIC (Helicobacter pylori) [µg/mL] | SMILES | inhibition in vivo at 32 mg/kg [1] [%] | inhibition in vivo at 32 mg/kg (ethanol peptic ulcer) [%]
6.25 (≈ 12 µM) | O=C(CCCNC(=S)Nc1cccc2ccccc12)NCCCOc1cccc(CN2CCCCC2)c1 [Example 7, 1-[3-[N-[3-[3-(piperidinomethyl)phenoxy]-propyl]carbamoyl]propyl]-3-(1-naphthyl)thiourea] | 88.3 | 92
6.25 (≈ 12.1 µM) | CSc1ccccc1NC(=S)NCCCC(=O)NCCCOc1cccc(CN2CCCCC2)c1 [Example 21, 1-[3-[N-[3-[3-(piperidinomethyl)phenoxy]propyl]carbamoyl]propyl]-3-(2-methylthiophenyl)thiourea] | 85.5 | 81.1
12.5 (≈ 25.3 µM) | N#Cc1cccc(NC(=S)NCCCC(=O)NCCCOc2cccc(CN3CCCCC3)c2)c1 [Example 20, 1-[3-[N-[3-[3-(piperidinomethyl)phenoxy]propyl]carbamoyl]propyl]-3-(3-cyanophenyl)thiourea] | 70.2 | 83.5
6.25 (≈ 11.2 µM) | COc1cc(NC(=S)NCCCC(=O)NCCCOc2cccc(CN3CCCCC3)c2)cc(OC)c1OC [Example 18, 1-[3-[N-[3-[3-(piperidinomethyl)phenoxy]propyl]carbamoyl]propyl]-3-(3,4,5-trimethoxyphenyl)thiourea] | 60.6 | 83.8
6.25 (≈ 12.6 µM) | Cc1cc(C)cc(NC(=S)NCCCC(=O)NCCCOc2cccc(CN3CCCCC3)c2)c1 [Example 11, 1-[3-[N-[3-[3-(piperidinomethyl)phenoxy]propyl]carbamoyl]propyl]-3-(3,5-dimethylphenyl)thiourea] | 85.5 | 92.8
6.25 (≈ 12.5 µM) | COc1cccc(NC(=S)NCCCC(=O)NCCCOc2cccc(CN3CCCCC3)c2)c1 [Example 15, 1-[3-[N-[3-[3-(piperidinomethyl)phenoxy]propyl]carbamoyl]propyl]-3-(3-methoxyphenyl)thiourea] | 78.3 | 92.1
6.25 (≈ 15.4 µM) | CNC(=S)NCCCC(=O)NCCCOc1cccc(CN2CCCCC2)c1 [Example 1, 1-[3-[N-[3-[3-(piperidinomethyl)phenoxy]propyl]carbamoyl]propyl]-3-methylthiourea] | 92.1 | 51.4
12.5 (≈ 23.6 µM) | COCOc1ccccc1NC(=S)NCCCC(=O)NCCCOc1cccc(CN2CCCCC2)c1 [Example 24, 1-[3-[N-[3-[3-(piperidinomethyl)phenoxy]propyl]carbamoyl]propyl]-3-(2-methoxymethoxyphenyl)thiourea] | 60.3 | 70.3
6.25 (≈ 13.9 µM) | CCCCNC(=S)NCCCC(=O)NCCCOc1cccc(CN2CCCCC2)c1 [Example 2] | 67.1 | 75.7
6.25 (≈ 12.6 µM) | O=C(CCCNC(=S)NCCc1ccccc1)NCCCOc1cccc(CN2CCCCC2)c1 [Example 6] | 76.9 | 84.4
12.5 (≈ 25.2 µM) | O=C(CCCCCNC(=S)Nc1ccccc1)NCCCOc1cccc(CN2CCCCC2)c1 [Example 28, 1-[5-[N-[3-[3-(piperidinomethyl)phenoxy]propyl]carbamoyl]pentyl]-3-phenylthiourea] | 73.2 | 75.5
6.25 (≈ 11.6 µM) | O=C(CCCNC(=S)Nc1ccccc1C(F)(F)F)NCCCOc1cccc(CN2CCCCC2)c1 [Example 22, 1-[3-[N-[3-[3-(piperidinomethyl)phenoxy]propyl]carbamoyl]propyl]-3-(2-trifluoromethylphenyl)thiourea] | 83.3 | 76.4
6.25 (≈ 12.2 µM) | Cc1cc(C)c(NC(=S)NCCCC(=O)NCCCOc2cccc(CN3CCCCC3)c2)c(C)c1 [Example 12, 1-[3-[N-[3-[3-(piperidinomethyl)phenoxy]propyl]carbamoyl]propyl]-3-(2,4,6-trimethylphenyl)thiourea] | 77.1 | 80.2
6.25 (≈ 12.8 µM) | O=C(CCCNC(=S)NCc1cccs1)NCCCOc1cccc(CN2CCCCC2)c1 [Example 27, 1-[3-[N-[3-[3-(piperidinomethyl)phenoxy]propyl]carbamoyl]propyl]-3-(2-thienylmethyl)thiourea] | 72.5 | 88.2
6.25 (≈ 13.2 µM) | O=C(CCCNC(=S)NC1CCCCC1)NCCCOc1cccc(CN2CCCCC2)c1 [Example 5, 1-[3-[N-[3-[3-(piperidinomethyl)phenoxy]propyl]carbamoyl]propyl]-3-cyclohexylthiourea] | 70.5 | 82.3
6.25 (≈ 12.2 µM) | O=C(CCCNC(=S)Nc1ccccc1[N+](=O)[O-])NCCCOc1cccc(CN2CCCCC2)c1 [Example 23, 1-[3-[N-[3-[3-(piperidinomethyl)phenoxy]propyl]carbamoyl]propyl]-3-(O-nitrophenyl)thiourea] | 76.4 | 72.3
12.5 (≈ 22.3 µM) | O=C(CCCNC(=S)Nc1ccccc1Oc1ccccc1)NCCCOc1cccc(CN2CCCCC2)c1 [Example 17, 1-[3-[N-[3-[3-(piperidinomethyl)phenoxy]propyl]carbamoyl]propyl]-3-(O-phenoxyphenyl)thiourea] | 62.2 | 73.3
6.25 (≈ 13.7 µM) | O=C(CCCNC(=S)Nc1ccccc1)NCCCOc1cccc(CN2CCCC2)c1 [Example 9, 1-[3-[N-[3-[3-(pyrrolidinomethyl)phenoxy]propyl]carbamoyl]propyl]-3-phenylthiourea] | 58.6 | 77.9
6.25 (≈ 12.5 µM) | COc1ccc(NC(=S)NCCCC(=O)NCCCOc2cccc(CN3CCCCC3)c2)cn1 [Example 25, 1-[3-[N-[3-[3-(piperidinomethyl)phenoxy]propyl]carbamoyl]propyl]-3-[3-(6-methoxypyridyl)]thiourea] | 65.6 | 72.5
6.25 (≈ 12.2 µM) | CC(C)c1ccc(NC(=S)NCCCC(=O)NCCCOc2cccc(CN3CCCCC3)c2)cc1 [Example 13, 1-[3-[N-[3-[3-(piperidinomethyl)phenoxy]propyl]carbamoyl]propyl]-3-(p-isopropylphenyl)thiourea] | 77.3 | 90.2
6.25 (≈ 12.9 µM) | Cc1ccccc1NC(=S)NCCCC(=O)NCCCOc1cccc(CN2CCCCC2)c1 [Example 10, 1-[3-[N-[3-[3-(piperidinomethyl)phenoxyl]propyl]carbamoyl]propyl]-3-(O-methylphenyl)thiourea] | 82.2 | 94.2
6.25 (≈ 11.6 µM) | CCCCOc1ccccc1NC(=S)NCCCC(=O)NCCCOc1cccc(CN2CCCCC2)c1 [Example 16, 1-[3-[N-[3-[3-(piperidinomethyl)phenoxy]propyl]carbamoyl]propyl]-3-(O-n-buthoxyphenyl)thiourea] | 71.7 | 93.3
12.5 (≈ 26.7 µM) | O=C(CCCNC(=S)Nc1ccccc1)NCCCOc1cccc(CN2CCCCC2)c1 [Example 3, 1-[3-[N-(3-[3-(piperidinomethyl)phenoxy]propyl]carbamoyl]propyl]-3-phenylthiourea] | 80.5 | 88.7
12.5 (≈ 26.6 µM) | O=C(CCCNC(=S)Nc1cccnc1)NCCCOc1cccc(CN2CCCCC2)c1 [Example 8] | 82.2 | 65
